The record followed here is ChEMBL document CHEMBL3132769, “Fragment growing to retain or alter the selectivity of anchored kinase hinge-binding fragments” (Medchemcomm, 2014).

Test [1] has as its target Tyrosine-protein kinase Fyn (Homo sapiens) (UniProt P06241). Kind of test: Inhibition of human full length FYN expressed in baculovirus assessed as substrate phosphorylation using fluorescence-labelled peptides as substrate at 8 uM after 90 mins by microfluidic peptide phosphorylation assay.
Test [2] has as its target T1, Calcium/calmodulin-dependent protein kinase type IV (Homo sapiens) (UniProt Q16566).
T1 sequence (whole entry): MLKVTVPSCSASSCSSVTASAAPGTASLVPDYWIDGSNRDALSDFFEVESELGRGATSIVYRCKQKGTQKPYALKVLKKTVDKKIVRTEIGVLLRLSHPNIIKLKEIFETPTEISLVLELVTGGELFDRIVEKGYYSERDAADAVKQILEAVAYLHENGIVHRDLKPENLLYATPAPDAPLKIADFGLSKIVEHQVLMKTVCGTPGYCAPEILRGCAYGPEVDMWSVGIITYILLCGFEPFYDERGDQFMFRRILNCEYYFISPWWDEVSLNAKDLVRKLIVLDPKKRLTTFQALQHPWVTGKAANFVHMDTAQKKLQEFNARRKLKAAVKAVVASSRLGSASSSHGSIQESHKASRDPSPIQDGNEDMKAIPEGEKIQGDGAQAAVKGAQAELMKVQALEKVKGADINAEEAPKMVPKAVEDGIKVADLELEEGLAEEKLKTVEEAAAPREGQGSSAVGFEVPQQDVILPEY
Description: Inhibition of human full length CAMK4 expressed in baculovirus assessed as substrate phosphorylation using fluorescence-labelled peptides as substrate at 0.1 uM after 90 mins by microfluidic peptide phosphorylation assay.

Test [3] has as its target Mitogen-activated protein kinase 1 (Homo sapiens) (UniProt P28482). Description: Inhibition of human full length ERK2 expressed in Escherichia coli cell assessed as substrate phosphorylation using fluorescence-labelled peptides as substrate at 0.2 uM after 90 mins by microfluidic peptide phosphorylation assay.
In test [4] the target is T2, Serine/threonine-protein kinase Chk1 (Homo sapiens) (UniProt O14757).
T2 sequence (whole entry): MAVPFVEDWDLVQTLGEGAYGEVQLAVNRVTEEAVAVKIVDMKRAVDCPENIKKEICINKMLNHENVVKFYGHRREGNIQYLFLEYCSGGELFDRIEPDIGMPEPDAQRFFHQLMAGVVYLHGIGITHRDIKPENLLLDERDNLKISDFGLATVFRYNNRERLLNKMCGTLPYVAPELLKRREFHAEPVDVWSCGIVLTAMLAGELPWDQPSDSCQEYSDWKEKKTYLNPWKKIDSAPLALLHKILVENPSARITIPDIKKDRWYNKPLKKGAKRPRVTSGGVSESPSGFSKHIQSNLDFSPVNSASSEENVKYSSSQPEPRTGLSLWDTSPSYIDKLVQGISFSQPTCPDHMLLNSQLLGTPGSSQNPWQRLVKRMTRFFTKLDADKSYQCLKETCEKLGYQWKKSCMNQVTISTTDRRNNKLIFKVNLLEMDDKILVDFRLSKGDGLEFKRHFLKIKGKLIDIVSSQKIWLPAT
Kind of test: Inhibition of human full length CHK1 expressed in baculovirus assessed as substrate phosphorylation using fluorescence-labelled peptides as substrate at 0.2 uM after 90 mins by microfluidic peptide phosphorylation assay.

Test [5] concerns the target T3, Serine/threonine-protein kinase Sgk3 (Homo sapiens) (UniProt Q96BR1).
T3 sequence (whole entry): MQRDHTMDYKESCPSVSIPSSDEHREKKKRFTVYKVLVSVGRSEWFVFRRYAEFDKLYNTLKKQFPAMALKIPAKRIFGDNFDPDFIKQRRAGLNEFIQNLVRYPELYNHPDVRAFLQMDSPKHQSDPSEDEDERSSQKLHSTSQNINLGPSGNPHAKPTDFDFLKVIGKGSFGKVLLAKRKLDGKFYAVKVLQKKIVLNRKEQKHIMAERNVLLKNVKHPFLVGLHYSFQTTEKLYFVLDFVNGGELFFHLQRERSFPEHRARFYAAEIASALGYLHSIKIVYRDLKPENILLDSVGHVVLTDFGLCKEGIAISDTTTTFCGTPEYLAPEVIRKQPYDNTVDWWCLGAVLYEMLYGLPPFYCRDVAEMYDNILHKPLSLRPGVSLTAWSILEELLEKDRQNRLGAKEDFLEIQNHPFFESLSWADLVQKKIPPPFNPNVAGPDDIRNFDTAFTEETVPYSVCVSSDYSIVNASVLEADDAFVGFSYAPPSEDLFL
Kind of test: Inhibition of human full length SGK3 expressed in baculovirus assessed as substrate phosphorylation using fluorescence-labelled peptides as substrate at 9 uM after 90 mins by microfluidic peptide phosphorylation assay.

Test [6] addresses T4, cGMP-dependent protein kinase 1 (Homo sapiens) (UniProt Q13976).
T4 sequence (whole entry): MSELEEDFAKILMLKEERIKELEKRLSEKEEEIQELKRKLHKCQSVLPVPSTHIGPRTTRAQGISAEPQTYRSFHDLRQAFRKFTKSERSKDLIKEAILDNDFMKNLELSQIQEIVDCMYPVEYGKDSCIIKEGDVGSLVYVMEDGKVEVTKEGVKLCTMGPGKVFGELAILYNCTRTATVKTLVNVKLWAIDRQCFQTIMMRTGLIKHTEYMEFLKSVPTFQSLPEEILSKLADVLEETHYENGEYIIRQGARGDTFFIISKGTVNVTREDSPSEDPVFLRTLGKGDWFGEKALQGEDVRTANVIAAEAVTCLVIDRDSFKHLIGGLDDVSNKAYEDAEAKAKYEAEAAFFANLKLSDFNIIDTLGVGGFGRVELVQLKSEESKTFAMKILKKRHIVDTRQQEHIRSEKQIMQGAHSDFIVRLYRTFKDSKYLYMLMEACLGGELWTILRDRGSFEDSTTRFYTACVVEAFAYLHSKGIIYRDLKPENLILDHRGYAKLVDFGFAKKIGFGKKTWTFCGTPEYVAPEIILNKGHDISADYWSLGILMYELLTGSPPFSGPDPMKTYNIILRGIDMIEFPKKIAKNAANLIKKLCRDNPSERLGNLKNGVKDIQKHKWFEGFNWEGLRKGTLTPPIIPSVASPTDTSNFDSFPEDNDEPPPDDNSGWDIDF
Description: Inhibition of human full length PKG-1a expressed in baculovirus assessed as substrate phosphorylation using fluorescence-labelled peptides as substrate at 2 uM after 90 mins by microfluidic peptide phosphorylation assay.

For test [7], the target named is Tyrosine-protein kinase ABL2 (Homo sapiens) (UniProt P42684). Description: Inhibition of human truncated Arg expressed in baculovirus assessed as substrate phosphorylation using fluorescence-labelled peptides as substrate at 1000 uM after 90 mins by microfluidic peptide phosphorylation assay.
The target of test [8] is T2, Serine/threonine-protein kinase Chk1 (Homo sapiens). Description: Inhibition of human full length CHK1 expressed in baculovirus assessed as substrate phosphorylation using fluorescence-labelled peptides as substrate at 1000 uM after 90 mins by microfluidic peptide phosphorylation assay.

Sequence of Tyrosine-protein kinase Fyn (Homo sapiens) (P06241 2-537 limits assumed): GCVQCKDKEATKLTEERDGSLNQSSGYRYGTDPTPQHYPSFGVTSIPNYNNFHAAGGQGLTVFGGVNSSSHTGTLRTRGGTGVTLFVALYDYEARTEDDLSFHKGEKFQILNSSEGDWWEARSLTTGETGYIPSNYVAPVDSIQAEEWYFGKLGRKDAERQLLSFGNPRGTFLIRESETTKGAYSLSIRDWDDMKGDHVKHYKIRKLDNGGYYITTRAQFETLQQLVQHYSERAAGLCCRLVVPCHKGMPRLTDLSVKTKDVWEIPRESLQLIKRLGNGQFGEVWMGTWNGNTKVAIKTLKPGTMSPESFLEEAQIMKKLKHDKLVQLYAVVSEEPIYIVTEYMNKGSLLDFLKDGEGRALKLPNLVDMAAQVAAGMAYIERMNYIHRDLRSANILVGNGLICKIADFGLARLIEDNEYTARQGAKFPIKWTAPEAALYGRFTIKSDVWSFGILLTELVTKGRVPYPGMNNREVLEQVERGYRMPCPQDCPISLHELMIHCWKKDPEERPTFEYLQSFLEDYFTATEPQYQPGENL
Sequence of Tyrosine-protein kinase ABL2 (Homo sapiens) (P42684 whole entry, the tested form may be a part): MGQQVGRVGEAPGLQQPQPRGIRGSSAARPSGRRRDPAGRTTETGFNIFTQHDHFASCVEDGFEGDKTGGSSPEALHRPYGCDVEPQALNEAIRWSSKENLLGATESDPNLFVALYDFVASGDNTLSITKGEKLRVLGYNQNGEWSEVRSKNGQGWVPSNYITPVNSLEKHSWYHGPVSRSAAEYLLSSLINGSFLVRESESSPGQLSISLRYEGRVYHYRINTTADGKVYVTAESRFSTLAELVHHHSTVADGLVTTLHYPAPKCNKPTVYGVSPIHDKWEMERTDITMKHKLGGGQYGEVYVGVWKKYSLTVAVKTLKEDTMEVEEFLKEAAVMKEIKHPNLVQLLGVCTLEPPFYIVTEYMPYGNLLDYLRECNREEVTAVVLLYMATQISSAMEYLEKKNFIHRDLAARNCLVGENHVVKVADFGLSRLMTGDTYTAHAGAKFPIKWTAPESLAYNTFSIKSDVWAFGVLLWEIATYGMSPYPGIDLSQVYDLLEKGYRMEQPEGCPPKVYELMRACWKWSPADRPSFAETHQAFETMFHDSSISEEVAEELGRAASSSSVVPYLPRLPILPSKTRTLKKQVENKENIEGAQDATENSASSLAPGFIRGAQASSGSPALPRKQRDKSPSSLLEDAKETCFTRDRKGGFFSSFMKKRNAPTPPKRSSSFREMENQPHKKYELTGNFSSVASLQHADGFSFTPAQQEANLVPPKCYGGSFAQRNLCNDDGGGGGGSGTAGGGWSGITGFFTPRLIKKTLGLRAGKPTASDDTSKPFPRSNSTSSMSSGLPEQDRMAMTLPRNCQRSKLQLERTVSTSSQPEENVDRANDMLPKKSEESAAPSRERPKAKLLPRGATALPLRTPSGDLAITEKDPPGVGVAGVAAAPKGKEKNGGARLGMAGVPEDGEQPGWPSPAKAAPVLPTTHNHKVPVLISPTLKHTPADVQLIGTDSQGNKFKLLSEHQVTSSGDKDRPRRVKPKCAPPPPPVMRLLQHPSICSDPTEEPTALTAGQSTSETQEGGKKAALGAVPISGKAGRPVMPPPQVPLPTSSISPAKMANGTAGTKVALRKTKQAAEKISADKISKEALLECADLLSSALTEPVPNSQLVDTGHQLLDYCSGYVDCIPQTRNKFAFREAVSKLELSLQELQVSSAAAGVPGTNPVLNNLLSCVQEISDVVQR
Sequence of Mitogen-activated protein kinase 1 (Homo sapiens) (P28482 whole entry): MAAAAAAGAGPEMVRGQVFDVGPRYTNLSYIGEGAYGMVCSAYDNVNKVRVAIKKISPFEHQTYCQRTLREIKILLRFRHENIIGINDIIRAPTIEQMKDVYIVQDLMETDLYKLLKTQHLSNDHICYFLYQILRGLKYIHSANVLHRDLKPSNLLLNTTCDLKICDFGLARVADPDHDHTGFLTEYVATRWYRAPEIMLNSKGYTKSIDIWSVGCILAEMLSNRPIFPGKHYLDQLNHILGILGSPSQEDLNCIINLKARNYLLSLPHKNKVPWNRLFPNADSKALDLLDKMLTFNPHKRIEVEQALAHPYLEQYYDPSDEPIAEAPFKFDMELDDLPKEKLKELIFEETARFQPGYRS

The inhibition is the percentage by which the read-out fell short of the control. On to `NCC1CCN(c2ncnc3[nH]ccc23)CC1`, for which the inhibition in test [1] turned out to be 1%. On to `C[C@H](CN(C)C)Oc1nc(Nc2cc3cccc(Cl)c3cn2)cnc1C#N`, for which the inhibition in test [2] was determined as 3.5%. Turning to `Clc1ccc(C2(c3ccc(-c4ncnc5[nH]cnc45)cc3)CCNCC2)cc1`, the inhibition amounted to 7% in test [3] and 46% in test [4]. Turning to `NCC1CN(c2ncnc3[nH]c4cnccc4c23)CCO1` (stereo not drawn), the inhibition in test [5] worked out at 44%.

Turning to `NC1CCN(c2ncnc3[nH]ccc23)CC1`, in test [6], the inhibition came to 10%. Consider `c1cnc2[nH]ccc2c1`, for which the inhibition came to 40% in test [7] and 52% in test [8].
